In patent publication US8232101B2, “Identification of antigenic peptides from multiple myeloma cells” (Janssen Pharmaceutica N.V., priority 2009, dated 2012):

Legend:
[1] = test system: T2 cells loaded with individual peptides; assay: 51Cr Release Assay for activity of CTL generated with peptide-loaded Drosophila aAPC; format: cell-based, human; details: for Induction of CTL in two normal donors: Donor 1 and Donor 2, FIG. 3 and FIG. 4; for CTL Activities Strong: number of donors that elicited Strong activity over total number of donors; for CTL Activities Strong / CTL Activities Weak / CTL Activities None: T2 targets loaded with individual peptide; for CTL Activities Weak: number of donors that elicited Weak activity over total number of donors; for CTL Activities None: number of donors that elicited no activity over total number of donors
Description: Drosophila aAPC were generated from Schneider S2 cells (S2 cells), which were originally established in 1969 from several hundred Oregon-R (wild type) Drosophila melanogaster (Oregon-R) embryos (American Type Culture Collection (ATCC) CRL-1963) according to published procedures (Schneider, J. Embryol. Exp. Morph. 1972 Vol 27, pp. 353-365), and deposited in the ATCC(CRL10974). S2 cells are grown in commercial Schneider's Drosophila medium supplemented with 10% heat-inactivated fetal bovine serum. In order to generate aAPCs, human complementary DNAs (cDNAs) for HLA-A2.1, B7.1, LFA-3, ICAM-1 and CD70, were individually inserted into the pRmHa-3 vector and S2 cells were transfected using the calcium phosphate precipitation method with a mixture of HLA-A2.1, B7.1, LFA-3, ICAM-1 and CD70 plasmid DNAs (for aAPC clone 1120) and the phshneo plasmid. (see U.S. Pat. No. 6,225,042 regarding construction and use of pRMHa plasmid vectors). The human cDNAs were prepared using standard techniques by reverse transcription-PCR using primers derived from the published sequences for HLA-A2.1 from K562 cells, B7.1 from K562 cells, LFA-3 from HL60 cells, ICAM-1 from K562 cells, and CD70 from HLA-A2.1+LCL cells. K562 cells are a human erythroleukemic cell line, HL60 cells are a promyelocytic leukemia human cell line, and HLA-A2.1+LCL cells are an Epstein-Barr virus (EBV)-transformed lymphoblastoid cell line (LCL). Stably transfected cells were selected by culturing in Schneider's medium containing geneticin. Prior to scale up of the cells, expression of the transfected genes is induced by the addition of CuSO4. The level of expression is assessed by flow cytometry using anti-HLA-A2.1, anti-B7.1, anti-LFA-3, anti-ICAM-1 and CD70 antibodies. For efficient in vitro activation of the CD8+ lymphocytes, greater than 30% of the Drosophila cells must express the HLA-A2.1 molecule. The Drosophila cells regularly express each of the molecules at levels between 70-90%. Drosophila aAPC were washed and then incubated at RT for 4 hours with 10 μM of different combinations of mixed peptides or individual peptides (See e.g. U.S. Pat. Nos. 6,225,042, 6,355,479, 6,362,001 and 6,790,662; U.S. Patent Application Publication Nos. 2009/0017000 and 2009/0004142; and International Publication No. WO2007/103009). Purified human CD8+ T cells from HLA-A2 positive donors were then incubated with peptide-loaded Drosophila APC at 37° C., 5% CO2, for 5 days. Human IL-2 (20 U/ml, R&D Systems) and IL-7 (30 U/ml, R&D Systems) were added at day 5 and the activated CD8+ T cells (CTL) were re-stimulated twice, at day 7 and day 15, with non-CD8 adherent cells in a total peripheral blood mononuclear cell (PBMC) preparation from the same donor in the presence of peptides.
A number of different CTL were generated using CD8+ T cells from different donors and different combinations of mixed peptides, including combinations that contained only one peptide. For example, 24 selected peptides were mixed or used individually to create different combinations of peptide mixtures (PM) or individual peptides (P5 and P14) and produce peptide-loaded Drosophila APC. The resulting peptide-loaded Drosophila APC were incubated with CD8+ T cells from 2 different donors (Donor 1 and Donor 2) to produce 11 different batches of CTL (Donor 1: PM1, PM2, PM3, PM4, and P14; Donor 2: PM1, PM2, PM3, PM4, P5, and P14) (Table 3).
CTL (Effector) activity was measured with a standard chromium (^51Cr) release assay, with T2 cells (Target) loaded with individual peptides and also with a number of tumor cell lines as target cells (Brunner et al., Immunology. 1968 February; 14(2):181-96). The highest Effector (E) Target (T) ratio (E/T) was 50:1, with 1:5 serial dilutions of CTL (Effector) used to produce a dose response. Before the assay, Target cells (T2 cells at 3×10^6 cells/100 ul in 1×PBS with 4% FCS) were labeled by adding 100 ul of ^51Cr (Perkin Elmer) and incubating at 37° C. for 1 hour. […]

[2] = biological target: T1, HLA-A2 molecules in T2 cells (Homo sapiens, UniProt P04439, D140Y/D185E/D98H/E176V/E277Q/G131W/G231S/I119V/I121R/I166T/I218V/L300P/L318F/N151K/N90K/P208A/P217A/Q86G/Q94H/R138H/R169H/T345S); assay: HLA-A2 Stabilization Assay (peptide binding, T2 cells, flow cytometry); design: key: Strong (S); Median (M); Weak (W); None (N)
T1 construct: HLA-A2 molecules that are synthesized in a transporter associated with antigen processing (TAP)-deficient cell line, T2; host or cells: T2 cells (TAP-deficient human cell line)
Excerpt: The assay for peptide binding to class I major histocompatibility complex (MHC/HLA-A2) molecules is based on the ability of peptides to stabilize MHC class I, HLA-A2 molecules that are synthesized in a transporter associated with antigen processing (TAP)-deficient cell line, T2 (ATCC® Number: CRL-1992). The extent of stabilization of MHC class I molecules is directly related to the binding affinity of the added peptides (Townsend et al., Cell. 1990 Jul. 27; 62(2):285-95; Andersen et al., Tissue Antigens. 1999 August; 54(2):185-90).
For the assay, T2 cells were plated in 96-well V-bottom plates, 100 ul/well RPMI media, at a density of 1×10^6 cells/ml, with final peptide concentrations of 200 uM, 20 uM, 2 uM, 200 nM, 20 nM, 2 nM, and no peptide as negative control. The cells with peptides were incubated for 18 hours at 26° C., 5% CO2. After 18 hours, the plates were transferred to 37° C., 5% CO2 and incubated for an additional 3 hours. The cells in plate were washed once with FACS buffer (PBS, 2.5% FCS, 1% NaN3) and then stained by adding 1 ul/well FITC-labeled mouse anti-human HLA-A2 antibody (BD Pharmingen, Cat. No. 551285), 1 ul/well PI, and then incubating at 4° C. for 30 minutes. After staining, cells were resuspended in 200 ul of FACS buffer and transferred from 96-well plates to racks of 96 microtubes. Samples were run on a FACScan flow cytometer and the data were analysed by using CellQuest software.
A peptide of Hepatitis B Core protein (HBC) was used as a positive control. The Hepatitis B Core peptide is a potent HLA-A2.1 epitope and consists of residue numbers 18-27 of the core sequence, amino acids […] (SEQ ID NO:73) (Zhang et al. Immunology. 2007, 121(1):105-12).

[3] = truncated versions of P3, P13, P14

HLA-A2 Binding [2, 3] | Substance | CTL Activities None [1] | other results
– | ALNEEAGRLLL (listed as Homo sapiens) [Peptide P15] | 1/9 | Induction of CTL in two normal donors [1]: induced CTL; CTL Activities Strong [1]: 3/9; CTL Activities Weak [1]: 5/9
N | DLPGITR (listed as Homo sapiens) [Peptide P14-17] | – | –
N | DLPGITRV (listed as Homo sapiens) [Peptide P14-3] | – | –
N | DLPGMTKV (listed as Homo sapiens) [Peptide P13-3] | – | –
– | FLASESLLKGAL (listed as Homo sapiens) [Peptide P23] | 1/2 | Induction of CTL in two normal donors [1]: induced CTL; CTL Activities Strong [1]: 1/2
– | FLLPHPGLQV (listed as Homo sapiens) [Peptide P10] | 1/2 | Induction of CTL in two normal donors [1]: induced CTL; CTL Activities Strong [1]: 1/2
– | FMLQTYGQQL (listed as Homo sapiens) [Peptide P14-18] | – | HLA-A2 Binding ([2]; computer predicted peptides): N
– | HSLDNSLSILR (listed as Homo sapiens) [Peptide P16] | 2/2 | –
N | IDLPGITRV (listed as Homo sapiens) [Peptide P14-2] | – | –
– | KLLEPVLLL (listed as Homo sapiens) [Peptide P6] | 2/3 | CTL Activities Weak [1]: 1/3
– | KNPVLLKIL (listed as Homo sapiens) [Peptide P7] | 2/3 | CTL Activities Weak [1]: 1/3
N | LIDLPGIT (listed as Homo sapiens) [Peptide P14-13] | – | –
N | LIDLPGITR (listed as Homo sapiens) [Peptide P14-12] | – | –
N | LIDLPGITRV (listed as Homo sapiens) [Peptide P14-1] | – | –
– | LLGPRLVLA (listed as Homo sapiens) [Peptide P1] | 6/10 | Induction of CTL in two normal donors [1]: induced CTL; CTL Activities Strong [1]: 2/10; CTL Activities Weak [1]: 2/10
– | LLIDDKGTIKL (listed as Homo sapiens) [Peptide P20] | 2/3 | CTL Activities Weak [1]: 1/3
– | LLLDVAYGAVQA (listed as Homo sapiens) [Peptide P22] | 1/2 | CTL Activities Strong [1]: 1/2
– | LLLDVPTAAVQA (listed as Homo sapiens) [Peptide P21] | 2/3 | CTL Activities Strong [1]: 1/3
– | LLNMPPAHLK (listed as Homo sapiens) [Peptide P11] | – | CTL Activities Strong [1]: 1/2; CTL Activities Weak [1]: 1/2
– | LLYQGPHNTL (listed as Homo sapiens) [Peptide P12] | 2/3 | CTL Activities Weak [1]: 1/3

HLA-A2 Binding [2, 3] | Substance | CTL Activities None [1] | other results
N | LNLLEL (listed as Homo sapiens) [Peptide P3-3] | – | –
N | LPGITRV (listed as Homo sapiens) [Peptide P14-4] | – | –
N | LPGMTKV (listed as Homo sapiens) [Peptide P13-4] | – | –
– | LSLDSSLSSLL (listed as Homo sapiens) [Peptide P17] | 2/10 | Induction of CTL in two normal donors [1]: induced CTL; CTL Activities Strong [1]: 4/10; CTL Activities Weak [1]: 4/10
N | LVDLPGMT (listed as Homo sapiens) [Peptide P13-11] | – | –
N | LVDLPGMTKV (listed as Homo sapiens) [Peptide P13-1] | – | –
N | LVLNLLEL (listed as Homo sapiens) [Peptide P3-1] | – | –
– | NLLPKLHVV (listed as Homo sapiens) [Peptide P9] | 2/2 | –
N | PGITRV (listed as Homo sapiens) [Peptide P14-5] | – | –
N | PGMTKV (listed as Homo sapiens) [Peptide P13-5] | – | –
– | RSLFLLYAL (listed as Homo sapiens) [Peptide P4] | – | CTL Activities Weak [1]: 1/1
N | SLVLNL (listed as Homo sapiens) [Peptide P3-6] | – | –
N | SLVLNLL (listed as Homo sapiens) [Peptide P3-5] | – | –
N | SLVLNLLE (listed as Homo sapiens) [Peptide P3-4] | – | –
N | TLIDLP (listed as Homo sapiens) [Peptide P14-10] | – | –
N | TLIDLPGI (listed as Homo sapiens) [Peptide P14-8] | – | –
N | TLIDLPGIT (listed as Homo sapiens) [Peptide P14-7] | – | –
N | TLIDLPGITR (listed as Homo sapiens) [Peptide P14-6] | – | –
– | VLIPKLPQL (listed as Homo sapiens) [Peptide P5] | 2/3 | Induction of CTL in two normal donors [1]: induced CTL; CTL Activities Weak [1]: 1/3
– | YLLPAIVHI (listed as Homo sapiens) [Peptide P8] | 3/3 | –

Substance | HLA-A2 Binding [2, 3] | CTL Activities None [1] | other results
DLPGMTK (listed as Homo sapiens) [Peptide P13-15] | N | – | –
TLIDLPG (listed as Homo sapiens) [Peptide P14-9] | N | – | –
TLVDLPG (listed as Homo sapiens) [Peptide P13-9] | N | – | –
